ChEMBL document CHEMBL5620368, “Molecular-level strategic goals and repressors in Leishmaniasis - Integrated data to accelerate target-based heterocyclic scaffolds” (Eur J Med Chem, 2023)
In brackets after ≈: the same amount, converted by molar mass. One block for each compound: values may come before it.

Assays:
[1] = tested on: Leishmania donovani; assay: Antileishmanial activity against Leishmania donovani amastigotes assessed as parasite growth inhibition incubated for 72 hrs by MTS assay; type: functional, organism-based
[2] = tested on: Leishmania major; assay: Antileishmanial activity against Leishmania major amastigotes assessed as reduction in parasite growth incubated for 72 hrs by MTS assay; type: functional, organism-based
[3] = tested on: Leishmania donovani; assay: Antileishmanial activity against Leishmania donovani Ag83 amastigotes infected in BALB/c mouse macrophage assessed as cell viability incubated for 48 hrs by PI staining based analysis; type: functional, organism-based; details: Ag83, 48 h
[4] = tested on: Leishmania amazonensis; assay: Antiprotozoal activity against Leishmania amazonensis axenic amastigotes assessed as growth inhibition measured after 5 days by MTT assay; type: functional, organism-based; details: 120 h
[5] = Inhibition of Leishmania infantum Trypanothione reductase expressed in Escherichia coli BL21 (DE3) using trypanothione as substrate preincubated for 3 mins followed NADPH addition by Dixon plot analysis
[6] = Inhibition of Leishmania braziliensis DNA topoisomerase I
[7] = target: T1, DNA topoisomerase I (Leishmania donovani (strain BPK282A1), UniProt E9BRC0); assay: Inhibition of Leishmania donovani DNA topoisomerase I
T1 sequence (E9BRC0 whole entry): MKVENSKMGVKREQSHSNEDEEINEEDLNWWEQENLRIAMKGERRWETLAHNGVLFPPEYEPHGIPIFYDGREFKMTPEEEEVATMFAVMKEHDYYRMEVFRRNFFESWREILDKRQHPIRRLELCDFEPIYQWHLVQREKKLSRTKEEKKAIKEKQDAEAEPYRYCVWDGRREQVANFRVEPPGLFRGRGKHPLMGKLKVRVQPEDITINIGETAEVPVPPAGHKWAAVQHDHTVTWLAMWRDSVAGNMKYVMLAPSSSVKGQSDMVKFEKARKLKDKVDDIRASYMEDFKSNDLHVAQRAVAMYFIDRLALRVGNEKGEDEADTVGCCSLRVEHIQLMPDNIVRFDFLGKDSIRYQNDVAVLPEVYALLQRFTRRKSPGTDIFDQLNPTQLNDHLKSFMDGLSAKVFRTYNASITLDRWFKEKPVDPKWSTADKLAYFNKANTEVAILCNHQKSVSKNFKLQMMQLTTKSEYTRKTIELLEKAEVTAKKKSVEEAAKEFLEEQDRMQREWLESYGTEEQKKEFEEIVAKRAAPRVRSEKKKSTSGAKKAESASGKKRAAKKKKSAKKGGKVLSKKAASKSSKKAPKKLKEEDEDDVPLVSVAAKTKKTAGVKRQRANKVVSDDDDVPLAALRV

[8] = tested on: Leishmania amazonensis; assay: Antileishmanial activity against Leishmania amazonensis promastigotes assessed as reduction in parasite growth after 72 hrs by CCK-8 assay; type: functional, organism-based
[9] = target: T2, Arginase (Leishmania amazonensis, UniProt O96394); assay: Inhibition of Leishmania amazonensis Arginase
[10] = tested on: Leishmania infantum; assay: Antileishmanial activity against Leishmania infantum amastigotes assessed as inhibition of parasite growth; type: functional, organism-based
[11] = tested on: Leishmania mexicana; assay: Antileishmanial activity against Leishmania mexicana promastigotes MHOM/B2/62/BEL21 assessed as reduction in parasite growth by tryphan blue staining based analysis; type: functional, organism-based
[12] = tested on: Leishmania infantum; assay: Antileishmanial activity against GFP-expressing Leishmania infantum intracellular amastigotes infected in human THP-1 derived macrophage cells assessed as reduction in parasite viability measured for 72 hrs by resazurin/alamar blue fluorometric assay; type: functional, organism-based; details: THP-1, 72 h
[13] = tested on: Leishmania amazonensis; assay: Antileishmanial activity against Leishmania amazonensis promastigotes assessed as parasite growth inhibition incubated for 24 hrs; type: functional, organism-based
[14] = tested on: Leishmania amazonensis; assay: Antileishmanial activity against Leishmania amazonensis axenic amastigote assessed as inhibition of parasite growth incubated for 72 hrs by MTT colorimetric assay; type: functional, organism-based
[15] = tested on: Leishmania amazonensis; assay: Antileishmanial activity against Leishmania amazonensis axenic promastigotes assessed as inhibition of parasite growth incubated for 72 hrs by MTT colorimetric assay; type: functional, organism-based
[16] = Inhibition of recombinant rat liver arginase
[17] = target: T2, Arginase; assay: Inhibition of Leishmania amazonensis Arginase assessed as inhibition constant
[18] = tested on: Leishmania infantum; assay: Antileishmanial activity against Leishmania infantum infected in BALB/c mouse assessed as reduction of parasite burden in spleen at 2.5 mg/kg for 15 days relative to control; type: functional; set-up: scale not given: the % may be the effect or the level left; details: time 15 day
[19] = tested on: Leishmania donovani; assay: Antileishmanial activity against Leishmania donovani MHOM/IN/83/AG83 promastigotes infected in BALB/c mouse assessed as reduction of parasite burden in spleen at 20 mg/kg per day relative to control; type: functional; set-up: scale not given: the % may be the effect or the level left

Compound: C/C=C(\CC[C@@H](C)[C@H]1CC[C@H]2[C@@H]3CC=C4C[C@@H](O)CC[C@]4(C)[C@H]3CC[C@]12C)C(C)C [FUCOSTEROL]
IC50 [1]: 18.5 µg/mL (≈ 44.8 µM)
IC50 [2]: 19 µg/mL (≈ 46 µM)

Compound: C/C=C1/CN(C)[C@H]2Cc3c([nH]c4ccccc34)[C@H](c3cc4[nH]c5c(c4cc3OC)CCN3C[C@@H]4C[C@H](CC)[C@H]3[C@@]5(C(=O)OC)C4)C[C@@H]1C2C(=O)OC (stereo partly specified)
EC50 [3]: 1.68 µM

Compound: COc1c(O)ccc2c1c[n+](C)c1c3cc4c(cc3ccc21)OCO4
IC50 [4]: 0.54 µM

Compound: Cc1cc(NC(=O)c2ccc([N+](=O)[O-])s2)ccc1Br
IC50 [5]: 0.19 µM

IC50 [6]: 5.2 µM
Compound: CCCCCC(C1=C(O)C(=O)c2ccccc2C1=O)C1=C(O)C(=O)c2ccccc2C1=O

IC50 [7]: 50 µM
Compound: COc1cc2c3c(c1)Oc1c(OC)c(OC)c(OC)c4c1C(Cc1ccc(cc1)Oc1cc(ccc1OC)C[C@H]3N(C)CC2)N(C)CC4 (stereo partly specified)

Compound: O=c1cc(-c2ccc(O)c(O)c2)oc2c(C3OC(CO)[C@@H](O)[C@@H](O)[C@@H]3O)c(O)cc(O)c12 (stereo partly specified)
IC50 [8]: 15.9 µM

Compound: O=c1c(O)c(-c2ccc(O)c(O)c2)oc2cc(O)cc(O)c12 [QUERCETIN]
IC50 [9]: 4.3 µM

IC50 [9]: 12 µM
Compound: O=c1cc(-c2ccccc2)oc2c(O)c(O)ccc12 [7,8-DIHYDROXYFLAVONE]

Compound: COc1cccc(C2Nc3cccnc3[C@H]3c4ccccc4C[C@@H]23)c1 (stereo partly specified)
IC50 [10]: 0.54 µM

Compound: Cc1ccc2c(c1)C1c3ccccc3CC1C(c1ccccn1)N2 (stereo unspecified)
IC50 [11]: 1 µg/mL (≈ 3.2 µM)

IC50 [9]: 1.4 µM
Compound: O=c1c(O)c(-c2ccc(O)c(O)c2)oc2cc(O)ccc12 [FISETIN]

Compound: O=C(CC12CC3CC(CC(C3)C1)C2)Nc1ccc([Se][Se]c2ccc(NC(=O)C34CC5CC(CC(C5)C3)C4)cc2)cc1
EC50 [12]: 1.19 µM

Compound: Fc1ccc(C2Nc3cccnc3[C@H]3c4ccccc4C[C@@H]23)c(F)c1 (stereo partly specified)
IC50 [10]: 0.67 µM

Compound: CCN(CC)CCOC(=O)c1ccc(NCCC(=O)c2ccc([N+](=O)[O-])cc2)cc1
IC50 [13]: 12.4 µM

Compound: CO[C@@]12[C@H](COC(N)=O)C3=C(C(=O)C(C)=C(N)C3=O)N1C[C@@H]1N[C@@H]12 [MITOMYCIN]
IC50 [14]: 11.5 µM
IC50 [15]: 12.8 µM

Compound: COC[C@@H](Cc1ccc(OC)c(OC)c1)[C@@H](COC)Cc1cc(OC)c2c(c1)OCO2
EC50 [3]: 1.26 µM

IC50 [6]: 0.6 µM
Compound: O=C1C(O)=C(C(C2=C(O)C(=O)c3ccccc3C2=O)c2ccc(F)cc2)C(=O)c2ccccc21

IC50 [7]: 5.3 µM
Compound: CCCCCCCCCCCCCCCC#CC(=O)O

Compound: O=C(O[C@@H]1Cc2c(O)cc(O)cc2O[C@@H]1c1cc(O)c(O)c(O)c1)c1cc(O)c(O)c(O)c1 [EPIGALOCATECHIN GALLATE]
IC50 [16]: 3.8 µM

Compound: COc1cccc2c1C(=O)c1c(O)c3c(c(O)c1C2=O)C[C@@](O)(C(=O)CO)C[C@@H]3O[C@H]1C[C@H](N)[C@H](O)[C@H](C)O1 [DOXORUBICIN]
IC50 [14]: 12 µM
IC50 [15]: 11.8 µM

IC50 [6]: 71 µM
Compound: O=C1C(O)=C(CC2=C(O)C(=O)c3ccccc3C2=O)C(=O)c2ccccc21

IC50 [16]: 1.8 µM
Compound: Oc1cc(O)c2c(c1)O[C@H](c1ccc(O)c(O)c1)[C@@H](O)C2 [CIANIDANOL]

Ki [17]: 1.3 µM
IC50 [9]: 28 µM
Compound: O=C(/C=C/c1ccc(O)c(O)c1)O[C@@H](Cc1ccc(O)c(O)c1)C(=O)O

Compound: COc1cc2c3c(n(CCCN4CCOCC4)c(=O)c2cc1OC)-c1cc2c(cc1C3=O)OCO2 [INDOTECAN]
Activity [18]: 80%

IC50 [6]: > 100 µM
Compound: COc1ccc(C(C2=C(O)C(=O)c3ccccc3C2=O)C2=C(O)C(=O)c3ccccc3C2=O)cc1

Compound: sodium antimony gluconate
Activity [19]: 97%
